Results from paper PMC7968037 (RSC Advances, 2021).
Like-named read-outs stand apart in the source and are kept apart here.

How the values were obtained:
in vitro [1] = conditions: human, Cytotoxicity [log(EC50 [μM]) ± SEM], cellular necrosis, MCF-7, 72 h exposure, 0.32–320 μM; values are logarithms
in vitro [2] = conditions: human, Cytotoxicity [log(EC50 [μM]) ± SEM], cellular necrosis, SK-BR-3, 72 h exposure, 0.32–320 μM; values are logarithms
[3] = system: MDA-MB-231 (triple negative) breast cancer cells; test: cells; format: cell-based; conditions: Homo sapiens, read-out: Growth inhibition [log(IC50 [μM]) ± SEM] (converted)
in vitro [4] = conditions: human, Cytotoxicity [log(EC50 [μM]) ± SEM], cellular necrosis, MCF-10A, 72 h exposure, 0.32–320 μM; values are logarithms
[5] = system: SK-BR-3 (ER−/PR−/HER2+) breast cancer cells; test: cells; format: cell-based; conditions: Homo sapiens, read-out: Growth inhibition [log(IC50 [μM]) ± SEM] (converted)
[6] = system: MCF-7 (ER+/PR+/HER2−) breast cancer cells; test: cells; format: cell-based; conditions: for IC50: Homo sapiens, read-out: Growth inhibition [log(IC50 [μM]) ± SEM] (converted); for Early inhibition of growth compared to vehicle-treated cells: MCF-7, 24 h, tested 0.32–320 μM, Fig. 4A
[7] = system: benign MCF-10A breast cells; test: cells; format: cell-based; conditions: for Change of cell growth compared to vehicle-treated cells: tested 0.32–320 μM; for IC50: Homo sapiens, read-out: Growth inhibition [log(IC50 [μM]) ± SEM] (converted)
[8] = system: benign MCF-10A breast cells; conditions: tested 0.32–320 μM; for Concentrations that exerted significant toxicity compared to vehicle: 72 h, p ≤ 0.05, Fig. 5D′; for Concentrations that exerted significant cytotoxicity compared to vehicle: 24 h, p ≤ 0.05, Fig. 5D
in vitro [9] = conditions: human, Cytotoxicity [log(EC50 [μM]) ± SEM], cellular necrosis, MDA-MB-231, 72 h exposure, 0.32–320 μM; values are logarithms

| SMILES | IC50 ([3]; MDA-MB-231, 24 h) | IC50 ([3]; MDA-MB-231, 72 h) | IC50 ([5]; SK-BR-3, 24 h) | IC50 ([5]; SK-BR-3, 72 h) | IC50 ([6]; MCF7, 24 h) | IC50 ([6]; MCF7, 72 h) | EC50 (in vitro [1]) | EC50 (in vitro [2]) | EC50 (in vitro [4]) | Change of cell growth compared to vehicle-treated cells ([7]; 24 h, Fig. 4D) | Change of cell growth compared to vehicle-treated cells ([7]; 72 h, Fig. 4D′) | IC50 ([7]; 24 h) | IC50 ([7]; 72 h) | Concentrations that exerted significant toxicity compared to vehicle [8] | EC50 (in vitro [9]) | Concentrations that exerted significant cytotoxicity compared to vehicle [8] | Early inhibition of growth compared to vehicle-treated cells [6] |
| --- | --- | --- | --- | --- | --- | --- | --- | --- | --- | --- | --- | --- | --- | --- | --- | --- | --- |
| C=C(C[C@H](N)C(=O)O)C(N)=O [Compound 1, (S)-2-Amino-4-carbamoylpent-4-enoic acid] | 141 µM | > 320 µM | 7.94 µM | 11.2 µM | > 320 µM | > 320 µM | 2.95 µM | 2.04 µM | > 316 µM | significant increases | significant increases | > 316 µM | > 316 µM | 3.2 µM | > 316 µM |  |  |
| C=C(C[C@H](N)C(=O)O)C(=O)NCc1ccc(F)cc1 [Compound 5, (S)-2-Amino-4-((4-fluorobenzyl)carbamoyl)pent-4-enoic acid] | > 320 µM | > 320 µM | 3.89 µM | 4.47 µM | > 320 µM | 85.1 µM | 55 µM | 0.389 µM | > 316 µM | significant increases | significant increases | > 316 µM | > 316 µM | 320 µM | 263 µM | 320 µM |  |
| C=C(C[C@H](N)C(=O)O)C(=O)Nc1ccc(Cl)cc1 [Compound 10, (S)-2-Amino-4-((4-chlorophenyl)carbamoyl)pent-4-enoic acid] | > 320 µM | > 320 µM | 79.4 µM | 3.98 µM | > 320 µM | 209 µM | 93.3 µM | > 316 µM | > 316 µM |  | significant increases | > 316 µM | > 316 µM | 100 µM | > 316 µM |  | exerted early inhibition |
| O=C(c1cc(Cc2n[nH]c(=O)c3ccccc23)ccc1F)N1CCN(C(=O)C2CC2)CC1 [Olaparib, reference compound] | 162 µM | 155 µM | 1.62 µM | 1.05 µM | > 316 µM | 107 µM | 26.3 µM | 0.0603 µM | > 316 µM |  |  | > 316 µM | > 316 µM | 320 µM | 97.7 µM | 320 µM |  |
| CC/C(=C(\c1ccccc1)c1ccc(OCCN(C)C)cc1)c1ccccc1 [Tamoxifen, reference compound] |  |  |  |  |  |  |  | 0.331 µM | > 316 µM |  |  |  |  |  | 30.9 µM |  |  |

Second part, led by results:

| IC50 ([3]; MDA-MB-231, 24 h) | IC50 ([3]; MDA-MB-231, 72 h) | IC50 ([5]; SK-BR-3, 24 h) | IC50 ([5]; SK-BR-3, 72 h) | IC50 ([6]; MCF7, 24 h) | IC50 ([6]; MCF7, 72 h) | SMILES | EC50 (in vitro [1]) | EC50 (in vitro [2]) | EC50 (in vitro [4]) | Change of cell growth compared to vehicle-treated cells ([7]; 24 h, Fig. 4D) | Change of cell growth compared to vehicle-treated cells ([7]; 72 h, Fig. 4D′) | IC50 ([7]; 24 h) | IC50 ([7]; 72 h) | Concentrations that exerted significant toxicity compared to vehicle [8] | EC50 (in vitro [9]) | Concentrations that exerted significant cytotoxicity compared to vehicle [8] | Early inhibition of growth compared to vehicle-treated cells [6] |
| --- | --- | --- | --- | --- | --- | --- | --- | --- | --- | --- | --- | --- | --- | --- | --- | --- | --- |
| > 320 µM | > 320 µM | 37.2 µM | 1.66 µM | > 320 µM | 251 µM | C=C(C[C@H](N)C(=O)O)C(=O)Nc1ccccc1 [Compound 3, (S)-2-Amino-4-(phenylcarbamoyl)pent-4-enoic acid] | 2.04 µM | > 316 µM | > 316 µM |  | significant increases | > 316 µM | > 316 µM |  | > 316 µM |  |  |
| > 320 µM | > 320 µM | 74.1 µM | 0.562 µM | > 320 µM | 195 µM | C=C(C[C@H](N)C(=O)O)C(=O)NCc1ccccc1 [Compound 4, (S)-2-Amino-4-(benzylcarbamoyl)pent-4-enoic acid] | 219 µM | > 316 µM | > 316 µM |  |  | > 316 µM | > 316 µM |  | > 316 µM |  |  |
| 219 µM | > 320 µM | 12.9 µM | 3.16 µM | > 320 µM | > 320 µM | C=C(C[C@H](N)C(=O)O)C(=O)NCc1ccc([N+](=O)[O-])cc1 [Compound 6, (S)-2-Amino-4-((4-nitrobenzyl)carbamoyl)pent-4-enoic acid] | 20.4 µM | 0.437 µM | > 316 µM | significant increases |  | > 316 µM | > 316 µM |  | 269 µM |  |  |
| > 320 µM | > 320 µM | 316 µM | 0.575 µM | 229 µM | > 320 µM | C=C(C[C@H](N)C(=O)O)C(=O)NC1CC1 [Compound 7, (S)-2-Amino-4-(cyclopropylcarbamoyl)pent-4-enoic acid] | > 316 µM | > 316 µM | > 316 µM |  | significant increases | > 316 µM | > 316 µM |  | > 316 µM |  | exerted early inhibition |
| > 320 µM | > 320 µM | 135 µM | 0.617 µM | > 320 µM | > 320 µM | C=C(C[C@H](N)C(=O)O)C(=O)N1CCCCC1 [Compound 8, (S)-2-Amino-4-(piperidine-1-carbonyl)pent-4-enoic acid] | 200 µM | > 316 µM | > 316 µM |  | significant increases | > 316 µM | > 316 µM |  | > 316 µM |  |  |
| > 320 µM | > 320 µM | 11.5 µM | 4.79 µM | > 320 µM | 75.9 µM | C=C(C[C@H](N)C(=O)O)C(=O)Nc1ccc(F)cc1 [Compound 9, (S)-2-Amino-4-((4-fluorophenyl)carbamoyl) pent-4-enoic acid] | 2.29 µM | 0.0603 µM | > 316 µM |  |  | > 316 µM | > 316 µM |  | > 316 µM |  |  |
